Measured values reported in patent US20120201749A1, “NP-1 Antagonists and Their Therapeutic Use” (priority 2009, published 2012).

Molecular target: NP-1 (Homo sapiens, UniProt O14786)
Assay: Biotinylated-VEGF-A165 (bt-VEGF-A165) binding to NP-1
Conditions: for inhibition at 3 µM: read-out: Screen (% inhibition at 3 μM); for inhibition at 30 µM / Screen (% inhibition at 30 μM): 30 μM compound; for inhibition at 30 µM: read-out: Screen (% inhibition at 30 μM)
Method: Human prostate carcinoma DU145 cells were cultured in growth medium (RPMI 1640 containing 10% FBS and L-glutamine). DU145 cells were seeded at the density of 2×10^4 cells per well (96-well plates) in 0.1 ml growth medium and transfected with adenovirus vectors containing the full-length open-reading frame of human NP-1. The Ad.NP-1-transfected cells grew for 2 days prior to a binding assay.
Confluent Ad.NP-1-transfected cells in 96-well plates were washed twice with phosphate-buffered saline (PBS). The various concentrations of compounds diluted in binding medium (Dulbecco's modified Eagle's medium, 25 mM HEPES pH 7.3 containing 0.1% BSA) were added, followed by addition of 2 nM of bt-VEGF-A165. After 2 h of incubation at room temperature, the medium was aspirated and washed three times with PBS. The bound bt-VEGF-A165 to NP-1 was detected by streptavidin-horseradish peroxidase conjugates and the enzyme substrate, and measured using a Tecan Genios plate reader at A450 nm with a reference wavelength at A595 nm. Non-specific binding was determined in the presence of 100-fold excess unlabelled VEGF-A165.
The 96-well plates were pre-coated with NP1 protein at 3 μg/ml overnight at 4° C. On the following day, the plates were treated with blocking buffer (PBS containing 1% BSA) and washed three times with wash buffer (PBS containing 0.1% Tween-20). The various concentrations of compounds diluted in PBS containing 1% DMSO were added, followed by addition of 0.25 nM of bt-VEGF-A165. After 2 h of incubation at room temperature, the plates were washed three times with wash buffer. The bound bt-VEGF-A165 to NP-1 was detected by streptavidin-horseradish peroxidase conjugates and the enzyme substrate, and measured using a Tecan Genios plate reader at A450 nm with a reference wavelength at A595 nm. Nonspecific binding was determined in the absence of NP-1 coated wells of the plates.

NP-1, sequence (O14786 22-923): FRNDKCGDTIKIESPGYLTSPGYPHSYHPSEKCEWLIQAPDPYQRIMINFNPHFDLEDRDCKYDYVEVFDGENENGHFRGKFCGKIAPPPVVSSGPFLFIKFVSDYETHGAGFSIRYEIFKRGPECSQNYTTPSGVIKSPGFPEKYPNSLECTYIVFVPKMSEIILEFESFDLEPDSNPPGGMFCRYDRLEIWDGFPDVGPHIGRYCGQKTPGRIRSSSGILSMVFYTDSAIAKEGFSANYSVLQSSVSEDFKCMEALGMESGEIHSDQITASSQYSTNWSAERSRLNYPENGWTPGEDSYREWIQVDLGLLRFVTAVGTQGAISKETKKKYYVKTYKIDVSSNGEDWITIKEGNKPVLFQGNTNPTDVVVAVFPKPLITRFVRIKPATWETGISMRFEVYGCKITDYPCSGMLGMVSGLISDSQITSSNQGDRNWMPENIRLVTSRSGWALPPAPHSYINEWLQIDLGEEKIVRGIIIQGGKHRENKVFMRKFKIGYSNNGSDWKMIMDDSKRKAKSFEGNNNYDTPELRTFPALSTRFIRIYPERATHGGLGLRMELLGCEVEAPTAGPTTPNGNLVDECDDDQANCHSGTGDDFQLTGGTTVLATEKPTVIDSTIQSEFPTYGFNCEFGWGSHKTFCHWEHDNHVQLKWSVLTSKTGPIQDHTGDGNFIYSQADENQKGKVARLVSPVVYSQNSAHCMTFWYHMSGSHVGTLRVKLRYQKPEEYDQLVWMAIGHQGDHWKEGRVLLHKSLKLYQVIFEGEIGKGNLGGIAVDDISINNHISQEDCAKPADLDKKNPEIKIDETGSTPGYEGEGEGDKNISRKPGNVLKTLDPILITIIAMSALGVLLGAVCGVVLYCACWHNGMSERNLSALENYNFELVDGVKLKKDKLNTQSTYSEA

SMILES	IC50 [nM]	inhibition at 3 µM (3 μM compound) [%]	inhibition at 30 µM [%]	Screen (% inhibition at 30 μM) [%]	Screen (% inhibition at 3 μM) (3 μM compound, 3 µM) [%]
N=C(N)NCCC[C@H](NC(=O)c1sccc1NS(=O)(=O)c1cc(-c2cccc(CN3CCN(c4ccncc4)CC3)c2)cc2c1OCC2)C(=O)O [Compound 28, (S)-5-Guanidino-2-[(3-{5-[3-(4-pyridin-4-yl-piperazin-1-ylmethyl)-phenyl]-2,3-dihydro-benzofuran-7-sulfonylamino}-thiophene-2-carbonyl)-amino]-pentanoic acid]	216	96	100	–	–
CCN(Cc1ccncc1)c1nc(CNc2cccc(S(=O)(=O)Nc3ccsc3C(=O)N[C@@H](CCCNC(=N)N)C(=O)O)c2)cs1 [Compound 73, (S)-2-{[3-(3-{[2-(Ethyl-pyridin-4-ylmethyl-amino)-thiazol-4-ylmethyl]-amino}-benzenesulfonylamino)-thiophene-2-carbonyl]-amino}-5-guanidino-pentanoic acid]	–	69	–	–	–
N=C(N)NCCC[C@H](NC(=O)c1sccc1NS(=O)(=O)c1cccc(NCc2csc(N3CCN(c4ccccn4)CC3)n2)c1)C(=O)O [Compound 63, (S)-5-guanidino-2-{[3-(3-{[2-(4-pyridin-2-yl-piperazin-1-yl)-thiazol-4-ylmethyl]-amino}-benzenesulfonylamino)-thiophene-2-carbonyl]-amino}-pentanoic acid]	–	49	83	–	–
COc1ccccc1-c1nc(CNc2cccc(S(=O)(=O)Nc3ccsc3C(=O)N[C@@H](CCCNC(=N)N)C(=O)O)c2)no1 [Compound 69, (S)-5-Guanidino-2-{[3-(3-{[5-(2-methyoxy-phenyl)-[1,2,4]oxadiazol-3-ylmethyl]-amino}-benzenesulfonylamino)-thiophene-2-carbonyl]-amino}-pentanoic acid]	–	37	79	–	–
N=C(N)NCCC[C@H](NC(=O)c1sccc1NS(=O)(=O)c1cccc(NCc2csc(N3CCN(c4ncccn4)CC3)n2)c1)C(=O)O [Compound 66, (S)-5-guanidino-2-{[3-(3-{[2-(4-pyrimidin-2-yl-piperazin-1-yl)-thiazol-4-ylmethyl]-amino}-benzenesulfonylamino)-thiophene-2-carbonyl]-amino}-pentanoic acid]	–	71	93	–	–
N=C(N)NCCC[C@H](NC(=O)c1sccc1NS(=O)(=O)c1cc(-c2cccc(CN3CCN(Cc4ccccn4)CC3)c2)cc2c1OCC2)C(=O)O [Compound 29, (S)-5-Guanidino-2-[(3-{5-[3-(4-pyridin-2-ylmethyl-piperazin-1-ylmethyl)-phenyl]-2,3-dihydro-benzofuran-7-sulfonylamino}-thiophene-2-carbonyl)-amino]-pentanoic acid]	686	79	100	–	–
N=C(N)NCCC[C@H](NC(=O)c1sccc1NS(=O)(=O)c1cc(-c2ccccc2CN2CCN(Cc3ccncc3)CC2)cc2c1OCC2)C(=O)O [Compound 17, (S)-5-Guanidino-2-[(3-{5-[2-(4-pyridin-4-ylmethyl-piperazin-1-ylmethyl)-phenyl]-2,3-dihydro-benzofuran-7-sulfonylamino}-thiophene-2-carbonyl)-amino]-pentanoic acid]	–	56	–	94	–
N=C(N)NCCC[C@H](NC(=O)c1sccc1NS(=O)(=O)c1cccc(NCc2csc(N3CCC(N)CC3)n2)c1)C(=O)O [Compound 64, (S)-5-guanidino-2-{[3-(3-{[2-(4-amino-piperidin-1-yl)-thiazol-4-ylmethyl]-amino}-benzenesulfonylamino)-thiophene-2-carbonyl]-amino}-pentanoic acid]	–	72	92	–	–
N=C(N)NCCC[C@H](NC(=O)c1sccc1NS(=O)(=O)c1cc(-c2cccc(CN3CCC(N4CCOCC4)CC3)c2)cc2c1OCC2)C(=O)O [Compound 38, (S)-5-Guanidino-2-[(3-{5-[3-(4-morpholin-4-yl-piperidin-1-ylmethyl)-phenyl]-2,3-dihydro-benzofuran-7-sulfonylamino}-thiophene-2-carbonyl)-amino]-pentanoic acid]	295	–	–	93	68
N=C(N)NCCC[C@H](NC(=O)c1sccc1NS(=O)(=O)c1cc(-c2ccccc2CNCc2ccc(N)nc2)cc2c1OCC2)C(=O)O [Compound 39, (S)-2-({3-[5-(2-{[(6-Amino-pyridin-3-ylmethyl)-amino]-methyl}-phenyl)-2,3-dihydro-benzofuran-7-sulfonylamino]-thiophene-2-carbonyl}-amino)-5-guanidino-pentanoic acid]	–	61	–	–	–
N=C(N)NCCC[C@H](NC(=O)c1sccc1NS(=O)(=O)c1cc(-c2ccccc2CN2CCN(Cc3ccccn3)CC2)cc2c1OCC2)C(=O)O [Compound 16, (S)-5-Guanidino-2-[(3-{5-[2-(4-pyridin-2-ylmethyl-piperazin-1-ylmethyl)-phenyl]-2,3-dihydro-benzofuran-7-sulfonylamino}-thiophene-2-carbonyl)-amino]-pentanoic acid]	–	64	95	–	–
Cc1ccc(NCCCNCc2ccccc2-c2cc3c(c(S(=O)(=O)Nc4ccsc4C(=O)N[C@@H](CCCNC(=N)N)C(=O)O)c2)OCC3)nc1 [Compound 50, (S)-5-Guanidino-2-({3-[5-(2-{[3-(5-methyl-pyridin-2-ylamino)-propylamino]-methyl}-phenyl)-2,3-dihydro-benzofuran-7-sulfonylamino]-thiophene-2-carbonyl}-amino)-pentanoic acid]	–	82	–	–	–
N=C(N)NCCC[C@H](NC(=O)c1sccc1NS(=O)(=O)c1cc(-c2ccccc2CNCc2cn[nH]c2)cc2c1OCC2)C(=O)O [Compound 54, (S)-5-Guanidino-2-({3-[5-(2-{[(1H-pyrazol-4-ylmethyl)-amino]-methyl}-phenyl)-2,3-dihydro-benzofuran-7-sulfonylamino]-thiophene-2-carbonyl}-amino)-pentanoic acid]	–	70	–	–	–
N=C(N)NCCC[C@H](NC(=O)c1sccc1NS(=O)(=O)c1cc(-c2cccc(CN3CCC(CC(=O)O)CC3)c2)cc2c1OCC2)C(=O)O [Compound 4, (S)-2-[(3-{5-[3-(4-Carboxymethyl-piperidin-1-ylmethyl)-phenyl]-2,3-dihydro-benzofuran-7-sulfonylamino}-thiophene-2-carbonyl)-amino]-5-guanidino-pentanoic acid]	72	80	–	–	–
Cn1cncc1CNCc1cccc(-c2cc3c(c(S(=O)(=O)Nc4ccsc4C(=O)N[C@@H](CCCNC(=N)N)C(=O)O)c2)OCC3)c1 [Compound 36, (S)-5-Guranidino-2-({3-[5-(3-{[(3-methyl-3H-imidazol-4-ylmethyl)-amino]-methyl}-phenyl)-2,3-dihydro-benzofuran-7-sulfonylamino]-thiophene-2-carbonyl}-amino)-pentanoic acid]	320	84	98	–	–
N=C(N)NCCC[C@H](NC(=O)c1sccc1NS(=O)(=O)c1cccc(NCc2csc(N3CCN(CCO)CC3)n2)c1)C(=O)O [Compound 77, (S)-5-Guanidino-2-({3-[3-({2-[4-(2-hydroxy-ethyl)-piperazin-1-yl]-thiazol-4-ylmethyl}-amino)-benzenesulfonylamino]-thiophene-2-carbonyl}-amino)-pentanoic acid]	3700	47	–	–	–
N=C(N)NCCC[C@H](NC(=O)c1sccc1NS(=O)(=O)c1cc(-c2cccc(CNCCc3cn[nH]c3)c2)cc2c1OCC2)C(=O)O [Compound 42, (S)-5-Guanidino-2-({3-[5-(3-{[2-(1H-pyrazol-4-yl)-ethylamino]-methyl}-phenyl)-2,3-dihydro-benzofuran-7-sulfonylamino]-thiophene-2-carbonyl}-amino)-pentanoic acid]	–	78	–	–	–
N=C(N)NCCC[C@H](NC(=O)c1sccc1NS(=O)(=O)c1cc(-c2ccccc2CNCc2ccncc2)cc2c1OCC2)C(=O)O [Compound 19, (S)-5-Guanidino-2-({3-[5-(2-{[(pyridin-4-ylmethyl)-amino]-methyl}-phenyl)-2,3-dihydro-benzofuran-7-sulfonylamino]-thiophene-2-carbonyl}-amino)-pentanoic acid]	–	56	–	–	–
N=C(N)NCCC[C@H](NC(=O)c1sccc1NS(=O)(=O)c1cc(-c2ccccc2CN2CCN(c3ccncc3)CC2)cc2c1OCC2)C(=O)O [Compound 15, (S)-5-Guanidino-2-[(3-{5-[2-(4-pyridin-4-yl-piperazin-1-ylmethyl)-phenyl]-2,3-dihydro-benzofuran-7-sulfonylamino}-thiophene-2-carbonyl)-amino]-pentanoic acid]	–	62	97	–	–
